Test results as given in patent US12472140B2, “Composition and method for transdermal delivery of cannabidiol (CBD) and tetrahydrocannabinol (THC)” (Ovation Science Inc., priority 2020, dated 2025).

Columns and labels:
[1] = cited from earlier work
[2] = oral doses of 15-20 mg; cited from earlier work
[3] = Six-hour Franz Cell study of skin penetration by CBD and THC; conditions: for penetration of CBD relative to THC: at 6 hours
[4] = Release of CBD and THC from the composition, effect of adding surfactant; format: physicochemical; conditions: for ratio of release of CBD and THC: numerically THC/CBD
Source text: Addition of surfactant can assist in release of CBD and THC from the composition.

Solubility = conditions: polyvinylpyrrolidone polymers with C16, C20, C30 side chains
[5] = Example 1, penetrant increased from 1% to 3%
[6] = Example 3, terpene penetrant increased from 1% to 3%

Row | SMILES | solubility in aqueous buffers [1] | solubility in organic solvents [1] | effect on cancer pain [2] | penetration [3, 5] [%] | penetration [3, 6] [%] | release from the composition ([4]; after addition of surfactant) [%] | ratio of release of CBD and THC ([4]; after addition of surfactant) | release from the composition ([4]; before addition of surfactant) [%] | ratio of release of CBD and THC ([4]; before addition of surfactant) | solubility in hydrophobic polymer delivery system / polymer complexes (Solubility) | penetration of CBD relative to THC ([3]; Example 1, 1:1 CBD:THC formulation) [times] | penetration of CBD relative to THC ([3]; Example 3, 1:1 CBD:THC formulation) [times] | actual (penetration) weight ratio of CBD:THC ([3]; Example 3, formulated weight ratio 1:1 CBD:THC)
1 | CCCCCc1cc(O)c2c(c1)OC(C)(C)[C@H]1CCC(C)=C[C@H]21 [THC, Δ^9-tetrahydrocannabinol] | sparingly soluble | readily soluble | decreased cancer pain comparable to 120 mg of codeine | 3.2 | 3.2 | 21.7 | 0.72 | 3 | 0.7 | readily soluble |  |  | 
2 | C=C(C)[C@@H]1CCC(C)=C[C@H]1c1c(O)cc(CCCCC)cc1O [CBD, cannabidiol] | sparingly soluble | readily soluble |  | 5.8 | 5.8 | 30.2 |  | 4.3 |  | readily soluble | ~4 | ~2 | 1.98
